This note sets out measurements from patent publication US20150111860A1, “SUSPOEMULSION” (SUMITOMO CHEMICAL COMPANY, LIMITED, priority 2012, published 2015).

SMILES strings stand for the structures. Read-outs that look alike come from different tables or passages of the source.

The nature of the series: Solubility of ingredient (2) in 100 g of the oil phase (ingredient (1)) at 25° C. by HPLC. Format: physicochemical. How it is done:
The solubility can be determined in the following manner. That is, an ingredient (2) is added to an ingredient (1), followed by mixing with stirring. After being left to stand in a constant temperature water bath at 25° C., the supernatant containing the ingredient (2) in a saturated state is isolated and filtered to obtain a solution, and then a prescribed amount of an internal standard fluid is added to prepare a sample liquid for analysis. Using the sample liquid for analysis, high-performance liquid chromatography is performed, thus enabling the measurement of the solubility.

Where [1] appears, read: oil phase composed of pyridalyl and Exxsol D110, 25° C.

For `Cc1nn(C)c(Cl)c1C(=O)Nc1cccc2c1C(C)OC2(C)C` (stereo not drawn) [furametpyr], the “solubility in 100 g of the oil phase” value is 0.394 g.

As for `CN/C(=N\[N+](=O)[O-])NCc1cnc(Cl)s1` [clothianidin], the “solubility in 100 g of the oil phase” value is, setting by setting: (oil phase composed of esfenvalerate and Solvesso 150, 25° C.) 0.003 g; under setting [1], 0.009 g; (oil phase composed of tolclofos-methyl and Solvesso 150, 25° C.) 0.002 g.

In the case of `CCNc1nc(CC)c(C(=O)NC(C#N)c2cccs2)s1` (stereo not drawn) [ethaboxam], the “solubility in 100 g of the oil phase” value was determined as 0.003 g.

As for `N#Cc1ccccc1NC(=O)c1snc(Cl)c1Cl` [isotianil], the “solubility in 100 g of the oil phase” value under setting [1] is on record as 0.020 g.
